In PubChem BioAssay (NCI):
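Assay format: 96-well plates, 48-hour exposure. At the GI50, growth is halved. TGI marks complete inhibition of growth.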

How the values were obtained:
Assay in all cases: NCI-60 cell line screen, 48 h
[1] = test system: K-562 leukemia
[2] = test system: HS 578T breast
[3] = test system: LOX IMVI melanoma
[4] = test system: SN12C renal
[5] = test system: SK-MEL-2 melanoma
[6] = test system: NCI-H522 lung
[7] = test system: U251 CNS
[8] = test system: HCT-15 colon
[9] = test system: SF-539 CNS
[10] = test system: SK-MEL-28 melanoma

Row | SMILES | GI50 [1] [µM] | TGI [1] [µM] | GI50 [2] [µM] | TGI [2] [µM] | GI50 [3] [µM] | TGI [3] [µM] | GI50 [4] [µM] | TGI [4] [µM] | GI50 [5] [µM] | TGI [5] [µM] | GI50 [6] [µM] | TGI [6] [µM] | GI50 [7] [µM] | TGI [7] [µM] | GI50 [8] [µM] | TGI [8] [µM] | GI50 [9] [µM] | TGI [9] [µM] | GI50 [10] [µM] | TGI [10] [µM]
1 | Oc1cn(-c2ccc(Cl)cc2)nc1-c1n[nH]c(=S)n1-c1ccc(F)cc1 | 12.6 | > 100 | 29.1 | > 100 | 16.8 | 43 | 16.9 | 50.3 | 34 | > 100 | 18 | 64.8 | 15.8 | > 100 | 11.3 | > 100 | 15.1 | 34.9 | 20.4 | > 100
2 | O=C(CCCCN1CCN(CCCCC(=O)Nc2ccccc2C#C/C=C\C#Cc2ccccc2C(F)(F)F)CC1)Nc1ccccc1C#C/C=C\C#Cc1ccccc1C(F)(F)F | 8.04 | 34.8 | 11.2 | 25.3 | 10.1 | 20.2 | 17.6 | > 50 | 12.4 | 29.9 | 9.19 | 20.4 | 9.01 | 18.9 | 10.5 | 23.8 | 10.2 | 19.3 | 9.76 | 18.4
3 | Cc1ccc2ccc3c4ccccc4ccc3c2c1 | 34.7 | > 100 | 27.7 | > 100 | 19.8 | 44.3 | 27 | > 100 | 19 | 41.8 | 19.1 | 51.7 | 28.3 | > 100 | 23.3 | 83.5 | 47.7 | > 100 | 39.4 | > 100
4 | N=C(N)n1cc(/C=N/N=C(N)N)cn1 | – | > 100 | – | > 100 | – | > 100 | – | > 100 | – | – | – | > 100 | – | > 100 | – | > 100 | – | > 100 | – | > 100
5 | CCOC(=O)c1cn(C)c2c(OC)c3ccccc3c(OC)c2c1=O | 36.4 | > 100 | 23.6 | 63.8 | 20.7 | 58.6 | 28.1 | 86.9 | – | – | > 100 | > 100 | 20.3 | 55.3 | 29.6 | > 100 | 34 | > 100 | 56 | > 100
6 | Cn1cc(-c2ccc3ncc(-c4ccc(CC(=O)Nc5cc(C(C)(C)C)nn5C)cc4)cc3c2)cn1 | 1.13 | > 20 | 0.798 | > 20 | 1.23 | > 20 | 0.854 | > 20 | 0.789 | 7.14 | 0.995 | 9.06 | 2.11 | > 20 | 0.793 | > 20 | 2.22 | > 20 | 3.57 | > 20
7 | C#COc1cccc(Nc2ncnc3cc(NC(=O)[C@@H](C)Cl)ccc23)c1 | 2.56 | > 62.5 | 7.88 | > 62.5 | 4.88 | > 62.5 | 16.8 | > 62.5 | 5.24 | > 62.5 | 3.96 | 40.8 | 7.29 | > 62.5 | 3.98 | > 62.5 | 8.61 | 46 | 14 | > 62.5
8 | COC(=O)c1ccc(NC(N)=NCCC(C)(C)c2ccc(C(F)(F)F)cc2)nc1 | 1.3 | 3.72 | 2.98 | 9.9 | 1.57 | 2.98 | 1.7 | 3.25 | 3.22 | 10.5 | 3.1 | 13 | 2.01 | 3.89 | 1.99 | 5.12 | 1.74 | 3.53 | 1.64 | 3.23
9 | S=C(Sc1ccc(Cl)cc1)Sc1ccc(Cl)cc1 | 1.87 | 7.63 | 3.96 | 16.3 | 1.13 | 2.37 | 2.12 | 5.34 | 4.61 | 16.7 | 1.11 | 2.33 | 2.64 | 8.92 | 1.77 | 4.71 | 1.74 | 3.84 | 1.89 | 3.49
10 | CC(=O)C1(C(=O)C(=[N+]=[N-])S(=O)(=O)c2ccccc2)CC1 | – | > 100 | – | > 100 | – | > 100 | – | > 100 | – | > 100 | – | > 100 | – | > 100 | – | > 100 | – | > 100 | – | > 100
11 | O=C(Nc1ccc(-n2cc(-c3ccncc3)c(-c3ccc(Cl)c(O)c3)n2)cc1)c1cc(C(F)(F)F)cc(C(F)(F)F)c1 | 4.97 | 88 | 5.32 | > 100 | 2.54 | 10.4 | 7.14 | 89.9 | 6.61 | 31.7 | 14 | 57.7 | 4.91 | 22 | 3.65 | > 100 | 2.95 | 13.8 | 4.88 | 20
12 | COc1ccc(-c2cnc(-c3ccncc3-c3cccc(OC)c3)o2)cc1 | 0.0288 | 12.8 | 0.0354 | 20.2 | 0.0599 | 15.5 | 0.0798 | 16 | 0.0397 | 15.2 | 0.019 | 0.0615 | 0.0387 | 13.4 | 0.0473 | 14.5 | 0.0268 | 0.0776 | 0.0639 | 17.8
13 | CCN1C(=O)N(CC)C2C1NC(=S)N2/N=C/C=C/c1ccccc1 (configuration not stated) | 0.0495 | > 100 | 0.0824 | > 100 | 0.154 | > 100 | 0.385 | > 100 | 0.661 | > 100 | 0.0486 | 4.45 | 0.302 | > 100 | 0.0849 | > 100 | 0.0633 | 0.871 | 1.91 | > 100
